# Measurements reported in publication PMC6375636, “Monotherapy with a low-dose lipopeptide HIV fusion inhibitor maintains long-term viral suppression in rhesus macaques” (PLoS Pathogens, 2019).
# Read-outs that look alike come from different tables or passages of the source. Peptide text beside a SMILES is read from it. * marks the point of attachment. Stearoyl = CCCCCCCCCCCCCCCCCC(=O)*; Palmitoyl = CCCCCCCCCCCCCCCC(=O)*
# Assays:
# Format in all cases: cell-based
# [1] = system: HIV-1 pseudovirus, primary Env CE703010217_B6; details: Env CE703010217_B6, subtype C; mean ± SD of 3 assays in triplicate
# Outline: (§1)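 Inhibition was scored by luciferase after 48 h infection of TZM-bl cells at 37°C, using 100 TCID50 of HEK293T-produced virus preincubated 1 h at room temperature with threefold-diluted compound.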
# HIV-1 THRO.c/2626 = details: Table 2; THRO.c/2626, subtype B, R5; mean ± SD of 3 assays in triplicate
# Outline: as §1
# [2] = system: HIV-1 pseudovirus, primary Env CAP45.2.00.G3; details: Env CAP45.2.00.G3, subtype C; mean ± SD of 3 assays in triplicate
# Outline: as §1
# [3] = system: HIV-1 pseudovirus, primary Env CH110; details: Env CH110, subtype B/C; mean ± SD of 3 assays in triplicate
# Outline: as §1
# [4] = system: HIV-1 pseudovirus, primary Env 92RW020; details: Env 92RW020, subtype A; mean ± SD of 3 assays in triplicate
# Outline: as §1
# [5] = system: HIV-1 pseudovirus, primary Env R3A; details: subtype B, mean ± SD of 3 assays in triplicate
# Outline: as §1
# [6] = system: HIV-1 pseudovirus, primary Env X1632-S2-B10; details: Env X1632-S2-B10, subtype G; mean ± SD of 3 assays in triplicate
# Outline: as §1
# HIV-1 LAI = details: Table 2, subtype B, X4, mean ± SD of 3 assays in triplicate
# Outline: as §1
# [7] = system: HIV-1 pseudovirus, primary Env 92UG037.8; details: Env 92UG037.8, subtype A; mean ± SD of 3 assays in triplicate
# Outline: as §1
# [8] = system: HIV-1 pseudovirus, primary Env B01; details: Env B01, subtype B'; mean ± SD of 3 assays in triplicate
# Outline: as §1
# HIV-1 RHPA.c/2635 = details: Table 2; RHPA.c/2635, subtype B, R5; mean ± SD of 3 assays in triplicate
# Outline: as §1
# HIV-1 SG3 = details: Table 2; SG3, subtype B, X4; mean ± SD of 3 assays in triplicate
# Outline: as §1
# [9] = system: HIV-1 pseudovirus, primary Env Du156; details: Env Du156, subtype C; mean ± SD of 3 assays in triplicate
# Outline: as §1
# [10] = system: HIV-1 pseudovirus, primary Env 246_F3_C10_2; details: Env 246_F3_C10_2, subtype A/C; mean ± SD of 3 assays in triplicate
# Outline: as §1
# [11] = system: HIV-1 pseudovirus, primary Env 398-F1_F6_20; details: Env 398-F1_F6_20, subtype A; mean ± SD of 3 assays in triplicate
# Outline: as §1
# [12] = system: HIV-1 pseudovirus, primary Env AC10.0.29; details: Env AC10.0.29, subtype B; mean ± SD of 3 assays in triplicate
# Outline: as §1
# HIV-1JRCSF = biological target: HIV-1JRCSF
# Outline: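 Luciferase in TZM-bl cells was the read-out. Cells (10^4/well) received virus–inhibitor mixtures (100 TCID50, 3-fold serial dilutions, 1 h room-temperature preincubation) and were cultured 48 h at 37°C. Pseudovirus came from HEK293T cotransfection with Env plasmid plus pSG3Δenv; replication-competent clones were transfected alone.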
# [13] = system: HIV-1 pseudovirus, primary Env CAP210.2.00.E8; details: Env CAP210.2.00.E8, subtype C; mean ± SD of 3 assays in triplicate
# Outline: as §1
# [14] = system: HIV-1 pseudovirus, primary Env pREJO4541; details: Env pREJO4541, subtype B; mean ± SD of 3 assays in triplicate
# Outline: as §1
# [15] = system: HIV-1 pseudovirus, primary Env CNE8; details: Env CNE8, subtype A/E; mean ± SD of 3 assays in triplicate
# Outline: as §1
# [16] = system: HIV-1 pseudovirus, primary Env ZM53M.PB12; details: Env ZM53M.PB12, subtype C; mean ± SD of 3 assays in triplicate
# Outline: as §1
# HIV-1HXB2 Env = biological target: T1, HIV-1HXB2 Env (Human immunodeficiency virus type 1 group M subtype B, UniProt P04578); experiment: HIV-1HXB2 Env-mediated cell-cell fusion (HL2/3 effector, TZM-bl target, luciferase reporter)
# T1 construct: HL2/3 cells, which stably express high levels of Env, Gag, Tat, Rev, and Nef proteins of the integrated HIV-1 molecular clone HXB2/3gpt; host or cells: HL2/3 cells (effector), cocultured with TZM-bl target cells
# Procedure: The inhibitory activities of inhibitors on HIV-1HXB2 Env-mediated cell-cell fusion were determined by a reporter gene assay based on the activation of an HIV LTR-driven luciferase cassette in TZM-bl cells (target) by HIV-1 tat from HL2/3 cells (effector). Briefly, 1 x 10^4/well of TZM-bl cells were plated in 96-well plates and incubated at 37°C overnight. Then, 3 x 10^4/well of HL2/3 cells were cocultured with target cells for 6 h at 37°C in the presence or absence of an inhibitor at graded concentrations. Luciferase activity was measured using luciferase assay reagents and a Luminescence Counter (Promega, Madison, Wisconsin, USA).
# [17] = Fig 1, replication-competent virus, mean ± SD of three assays in triplicate, read-out: Anti-HIV activity (IC50, pM) JRCSF infection
# [18] = Table 2, JR-CSF, subtype B, R5, mean ± SD of 3 assays in triplicate, read-out: Mean IC50
# T1 sequence (P04578 512-856): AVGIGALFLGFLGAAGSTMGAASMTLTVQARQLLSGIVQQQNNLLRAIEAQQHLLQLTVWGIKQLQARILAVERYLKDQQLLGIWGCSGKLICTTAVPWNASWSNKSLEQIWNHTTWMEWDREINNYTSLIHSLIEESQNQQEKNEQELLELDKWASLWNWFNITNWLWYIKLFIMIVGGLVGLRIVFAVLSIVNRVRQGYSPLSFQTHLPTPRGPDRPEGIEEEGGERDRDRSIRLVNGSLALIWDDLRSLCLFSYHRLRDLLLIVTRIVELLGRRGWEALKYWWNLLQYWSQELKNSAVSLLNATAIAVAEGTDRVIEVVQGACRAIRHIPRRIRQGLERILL
molecule,measurement,setting,value
"CCCCCCCCCCCCCCCC(=O)NCCCC[C@H](NC(=O)[C@H](CCC(=O)O)NC(=O)[C@H](CC(C)C)NC(=O)[C@H](CCCCN)NC(=O)[C@H](CCCCN)NC(=O)[C@H](CC(C)C)NC(=O)[C@H](CCC(=O)O)NC(=O)[C@H](CCC(=O)O)NC(=O)[C@H](CCC(=O)O)NC(=O)[C@H](CC(N)=O)NC(=O)[C@H](CCCCN)NC(=O)[C@H](CCCCN)NC(=O)[C@H](CCC(N)=O)NC(=O)[C@H](CCC(N)=O)NC(=O)[C@H](CCC(=O)O)NC(=O)[C@H](CCC(=O)O)NC(=O)[C@H](C)NC(=O)[C@H](CCCCN)NC(=O)[C@H](CCCCN)NC(=O)[C@H](CC(C)C)NC(=O)[C@H](CC(C)C)NC(=O)[C@H](CCC(=O)O)NC(=O)[C@H](CCC(=O)O)NC(=O)[C@@H](NC(=O)[C@H](CCCCN)NC(=O)[C@H](CCC(N)=O)NC(=O)[C@H](CCC(=O)O)NC(=O)[C@H](Cc1c[nH]c2ccccc12)NC(C)=O)[C@@H](C)CC)C(N)=O [LP-52, reference compound] (Ac-WEQKIEELLKKAEEQQKKNEEELKKLEK(Palmitoyl)-NH2)",IC50,[1],11.7 ± 1.37 pM
same,IC50,HIV-1 THRO.c/2626,27.1 ± 4.61 pM
same,IC50,[2],7.58 ± 0.64 pM
same,IC50,[3],7.98 ± 1.3 pM
same,IC50,[4],39.3 ± 1.51 pM
same,IC50,[5],9.22 ± 1.9 pM
same,IC50,[6],24.5 ± 2.39 pM
same,IC50,HIV-1 LAI,12.2 ± 0.93 pM
same,IC50,[7],28.2 ± 8.27 pM
same,IC50,[8],7.06 ± 1.16 pM
same,IC50,HIV-1 RHPA.c/2635,9.42 ± 1.34 pM
same,IC50,HIV-1 SG3,5.22 ± 1.89 pM
same,IC50,[9],4.66 ± 0.75 pM
same,IC50,[10],17.5 ± 1.91 pM
same,IC50,[11],9.48 ± 1.74 pM
same,IC50,[12],9.71 ± 0.81 pM
same,IC50,HIV-1JRCSF; [17],7.47 ± 1.9 pM
same,IC50,HIV-1JRCSF; [18],8.02 ± 3.59 pM
same,IC50,[13],39.2 ± 3.57 pM
same,IC50,[14],7.22 ± 0.85 pM
same,IC50,[15],4.97 ± 1.31 pM
same,IC50,[16],26.9 ± 3.04 pM
same,IC50,HIV-1HXB2 Env,18.7 ± 3.01 pM
CCCCCCCCCCCCCCCCCC(=O)NCCCC[C@H](NC(=O)[C@H](CCC(=O)O)NC(=O)[C@H](CC(C)C)NC(=O)[C@H](CCCCN)NC(=O)[C@H](CCCCN)NC(=O)[C@H](CC(C)C)NC(=O)[C@H](CCC(=O)O)NC(=O)[C@H](CCC(=O)O)NC(=O)[C@H](CCC(=O)O)NC(=O)[C@H](CC(N)=O)NC(=O)[C@H](CCCCN)NC(=O)[C@H](CCCCN)NC(=O)[C@H](CCC(N)=O)NC(=O)[C@H](CCC(N)=O)NC(=O)[C@H](CCC(=O)O)NC(=O)[C@H](CCC(=O)O)NC(=O)[C@H](C)NC(=O)[C@H](CCCCN)NC(=O)[C@H](CCCCN)NC(=O)[C@H](CC(C)C)NC(=O)[C@H](CC(C)C)NC(=O)[C@H](CCC(=O)O)NC(=O)[C@H](CCC(=O)O)NC(=O)[C@@H](NC(=O)[C@H](CCCCN)NC(=O)[C@H](CCC(N)=O)NC(=O)[C@H](CCC(=O)O)NC(=O)[C@H](Cc1c[nH]c2ccccc12)NC(C)=O)[C@@H](C)CC)C(N)=O [LP-80] (Ac-WEQKIEELLKKAEEQQKKNEEELKKLEK(Stearoyl)-NH2),IC50,[1],5.72 ± 1.32 pM
same,IC50,HIV-1 THRO.c/2626,14.9 ± 1.93 pM
same,IC50,[2],1.69 ± 0.48 pM
same,IC50,[3],3.3 ± 0.29 pM
same,IC50,[4],9.74 ± 0.93 pM
same,IC50,[5],6.34 ± 0.65 pM
same,IC50,[6],5.56 ± 0.76 pM
same,IC50,HIV-1 LAI,5.85 ± 0.86 pM
same,IC50,[7],3.72 ± 1 pM
same,IC50,[8],3.49 ± 0.4 pM
same,IC50,HIV-1 RHPA.c/2635,4.81 ± 1.98 pM
same,IC50,HIV-1 SG3,1.8 ± 0.42 pM
same,IC50,[9],1.1 ± 0.35 pM
same,IC50,[10],4.05 ± 0.47 pM
same,IC50,[11],1.49 ± 0.26 pM
same,IC50,[12],5.01 ± 0.93 pM
same,IC50,HIV-1JRCSF; [17],2.45 pM
same,IC50,HIV-1JRCSF; [18],4.02 ± 2.63 pM
same,IC50,[13],10.6 ± 2.56 pM
same,IC50,[14],1.4 ± 0.61 pM
same,IC50,[15],3.56 ± 0.7 pM
same,IC50,[16],8.62 ± 0.74 pM
same,IC50,HIV-1HXB2 Env,12.6 pM
CCCCCCCCCCCCCCCCCC(=O)NCCCC[C@H](NC(=O)[C@H](CCC(=O)O)NC(=O)[C@H](CC(C)C)NC(=O)[C@H](CCCCN)NC(=O)[C@H](CCCCN)NC(=O)[C@H](CC(C)C)NC(=O)[C@H](CCC(=O)O)NC(=O)[C@H](CCC(=O)O)NC(=O)[C@H](CCC(=O)O)NC(=O)[C@H](CC(N)=O)NC(=O)[C@H](CCCCN)NC(=O)[C@H](CCCCN)NC(=O)[C@H](CCC(N)=O)NC(=O)[C@H](CCC(N)=O)NC(=O)[C@H](CCC(=O)O)NC(=O)[C@H](CCC(=O)O)NC(=O)[C@H](C)NC(=O)[C@H](CCCCN)NC(=O)[C@H](CCCCN)NC(=O)[C@H](CC(C)C)NC(=O)[C@H](CC(C)C)NC(=O)[C@H](CCC(=O)O)NC(=O)[C@H](CCC(=O)O)NC(=O)[C@@H](NC(C)=O)[C@@H](C)CC)C(N)=O [LP-90] (Ac-IEELLKKAEEQQKKNEEELKKLEK(Stearoyl)-NH2),IC50,[1],11.2 ± 0.83 pM
same,IC50,HIV-1 THRO.c/2626,14.6 ± 2.24 pM
same,IC50,[2],2.14 ± 0.13 pM
same,IC50,[3],7.85 ± 1.22 pM
same,IC50,[4],15.1 ± 0.62 pM
same,IC50,[6],28.4 ± 4.11 pM
same,IC50,HIV-1 LAI,8.34 ± 1.54 pM
same,IC50,[7],8.42 ± 1.52 pM
same,IC50,[8],17.9 ± 1.58 pM
same,IC50,HIV-1 RHPA.c/2635,5.36 ± 1.66 pM
same,IC50,HIV-1 SG3,1.67 ± 0.61 pM
same,IC50,[9],3.63 ± 0.67 pM
same,IC50,[10],6.84 ± 0.47 pM
same,IC50,[11],6.32 ± 0.46 pM
same,IC50,[12],4.42 ± 0.28 pM
same,IC50,HIV-1JRCSF; [17],5.4 pM
same,IC50,HIV-1JRCSF; [18],9.33 ± 1.97 pM
same,IC50,[13],29.1 ± 1.33 pM
same,IC50,[14],15.9 ± 3.13 pM
same,IC50,[15],22.5 ± 2.6 pM
same,IC50,[16],8.81 ± 0.46 pM
same,IC50,HIV-1HXB2 Env,16.3 pM
"enfuvirtide [Lipopeptide T-20, reference compound]",IC50,[1],41800 ± 2220 pM
same,IC50,HIV-1 THRO.c/2626,31300 ± 2390 pM
same,IC50,[2],13600 ± 2040 pM
same,IC50,[3],31000 ± 2670 pM
same,IC50,[4],3240 ± 232 pM
same,IC50,[5],6880 ± 1120 pM
same,IC50,[6],15600 ± 2010 pM
same,IC50,HIV-1 LAI,1160 ± 103 pM
same,IC50,[7],7760 ± 1040 pM
same,IC50,[8],84400 ± 3690 pM
same,IC50,HIV-1 RHPA.c/2635,6520 ± 1330 pM
same,IC50,HIV-1 SG3,2850 ± 227 pM
same,IC50,[9],15700 ± 1580 pM
same,IC50,[10],36200 ± 3700 pM
same,IC50,[11],19400 ± 1710 pM
same,IC50,[12],2840 ± 103 pM
same,IC50,HIV-1JRCSF; [17],4460 ± 1400 pM
same,IC50,HIV-1JRCSF; [18],2970 ± 788 pM
same,IC50,[13],123000 ± 4770 pM
same,IC50,[14],55000 ± 2900 pM
same,IC50,[15],24800 ± 1880 pM
same,IC50,[16],22700 ± 943 pM
